According to US20260109721A1, “IONIZABLE CATIONIC LIPIDS INCORPORATING SILICON: SYNTHESIS AND LNP FORMULATION” (priority 2023, published 2026):

Tests used:
[1] = LNP size, PDI and zeta potential by Dynamic Light Scattering (Method A); assay type: physicochemical; conditions: LNP formulated with the lipid, DLS
Procedure: (§1) The synthesized lipids were tested in term of in vitro transfection efficacy and toxicity on HeLa cells. In order to perform the mentioned biological tests, appropriate LNPs had to be formulated from the synthesized lipids. The formulation technique was different in Method A and B. The particle size, polydispersity index (PDI) and zeta potential of resulting LNPs were determined by means of Dynamic Light Scattering technique (DLS). Prior to biological testing the encapsulation efficiency (EE) of the loaded LNPs was determined by using RiboGreen RNA assay. In case of Method A Luc mRNA while in case of Method B GFP mRNA was transfected into the cells. In parallel with the transfection experiments, toxicity of the investigated LNPs was determined, in case of Method A resazurin assay while in case of Method B MTT assay was used. Additionally, the toxicity of the lipids was investigated on HepG2 cells and IC50 values were determined.
• 1. If needed, prepare stock solutions by solving known amounts of lipid powder into an appropriate solvent. The recommended solvent is ethanol and the recommended concentration is typically in the range 10-50 mM. Higher concentrations are preferred to allow flexibility on mRNA-LNP concentration. • 2. Remove the lipid stock solutions from the −20° C. freezer. For long-term storage, −80° C. is used. • 3. Check the vials for precipitation, DOPE (CAS #4004-05-1) (20 mM) and DSPE-PEG (CAS #474922-26-4) (5 mM) may need a 5-30 minute incubation step at 37° C. with intermittent vortexing to resuspend all contents. […] As a last resort, lipids may be heated to 50° C. to resuspend, time should be kept as short as possible to prevent oxidation or other modifying or degradative processes. • 4. Mix the lipids by vortexing for 2 minutes. • 5. […] Cooling the solution prevent excessive evaporation of ethanol or similar solvents upon opening. • 6. Meanwhile, thaw the RNA samples, including the latest SecNLuc control, by inserting the frozen tube in a room temperature aluminium block. • 7. Prepare for each LNP-formulation with identical mRNA component, an RNA master mix according to Table 1 below in a fresh tube. Use of a master mix allows more precise comparison of lipid formulations relative to each other. Split the master mix over a number of fresh tubes equal to the number of samples+controls. Each tube contains 375 μl of mRNA in 10 mM Citrate pH 4.0. • 8. Prepare for each LNP formulation with identical lipid composition a Lipid master mix according to Table 1 below in a fresh tube, exclude the lipid of interest. Use of a master mix allows more precise comparison of the novel ionizable lipid relative to each other. Split the master mix over a number of fresh tubes equal to the number of samples+controls. Each tube contains 65.5 μl of lipid master mix. • 9. Add the ionizable lipid of interest to the equally divide lipid master mix. Mix well by pipetting up and down. Label the tube according to the ionizable lipid used. • 10. Power on the L1 FM (L1 Formulation Machine uses 2 high-speed syringe pumps to mix lipids in organic solvents with mRNA in acidic aquous solution to generate well-defined LNPs. The microfluidic mixing chip involves a dean-type structure performing the high-efficiency mixing at a total flow rate (TFR) of around 12 ml/min at a 3:1 mixing ratio) and allow it to do a calibration of motor positions.
• 18. Fill a fresh syringe (C) through a blunt 18G stainless steel needle with the previously prepared RNA mixture of step 6. The volume should be approximately 85% of total formulation volume+25 μl (dead-volume). Make sure to remove all air bubbles by tapping. • 19. Fill a fresh syringe (D) through a blunt 18G stainless steel needle with the Lipid master mix. The volume should be approximately […] of total formulation volume+25 μl (dead-volume). Again, Make sure to remove all bubbles. • 20. Attach the syringes in the correct orientation, syringe A on the left and syringe B on the right • 21.

[2] = test system: HepG2 cell line; test: In vitro toxicity study on HepG2 cell line (resazurin, viability and IC50); assay type: cell-based, human; conditions: resazurin; for Viability (%) at different lipid concentrations, mean: HepG2 cells, 48 h post-treatment, relative to ethanol vehicle controls; for IC50: Homo sapiens, lipid toxicity, HepG2, 48 h post-treatment, 6.25-800 μM, read-out: IC50 value, μM (on HepG2 cell)
Procedure: as §1
HepG2 cell line (human hepatocellular carcinoma) were maintained in DMEM medium supplemented with 10% FBS. Cell toxicity measurements were carried out in 384-well microtiter plates with 1000 cells seeded in each well. Test measurements were carried out in triplicate, and control measurements in quadruplicate. After an overnight incubation, the cells were treated with an increasing concentration of the test compounds (6.25, 12.5, 25, 50, 100, 200, 400, 800 μM). […] 48 h post-treatment, following visual inspection under an inverted microscope, cell viability was measured by resazurin assay. Viability of treated cells was calculated relative to that of ethanol vehicle controls. Concentration response curves (CRCs) were obtained and corresponding IC50 values were calculated where applicable and are shown in Table 9.
Resazurin reagent (Sigma-Aldrich) was dissolved in PBS (pH 7.4) at 0.15 mg/ml concentration, 0.22 μm filtered and aliquoted at −20° C., 10 μl resazurin stock solution was added to wells. After 5 hours incubation at 37° C. under 5% CO2 fluorescence (530 nm excitation/580 nm emission) was recorded on a multimode microplate reader.

Compound: CCCCC/C=C\C/C=C\CCCCCCCCOC(CCCCCN(C)CC(O)CO)O[Si](C)(C)OCCCCCCCC/C=C\C/C=C\CCCCC (stereo not drawn) [Example 66, (22Z,25Z)-4,12,12-trimethyl-10-(((9Z,12Z)-octadeca-9,12-dien-1-yl)oxy)-11,13-dioxa-4-aza-12-silahentriaconta-22,25-diene-1,2-diol]
- PDI [1]: 0.043
- Size (nm) [1]: 223.6 nm
- Zeta potential (mV) [1]: −11.66 mV
- Viability (%) at different lipid concentrations, mean ([2]; 6.25 μM lipid): 100.5%
- Viability (%) at different lipid concentrations, mean ([2]; 12.5 μM lipid): 97.9%
- Viability (%) at different lipid concentrations, mean ([2]; 25 μM lipid): 97.2%
- Viability (%) at different lipid concentrations, mean ([2]; 50 μM lipid): 96.5%
- Viability (%) at different lipid concentrations, mean ([2]; 100 μM lipid): 94.2%
- Viability (%) at different lipid concentrations, mean ([2]; 200 μM lipid): 95.5%
- Viability (%) at different lipid concentrations, mean ([2]; 400 μM lipid): 86.0%
- Viability (%) at different lipid concentrations, mean ([2]; 800 μM lipid): 42.6%
- IC50 [2]: 164 µM

Compound: CCCCCCCC/C=C\CCCCCCCCOC(CCCCCCCCCCCCCCC)O[Si](C)(C)OCCCCCCN(CCO)CCO (stereo not drawn) [Example 41, (Z)-3-(2-hydroxyethyl)-11,11-dimethyl-13-pentadecyl-10,12,14-trioxa-3-aza-11-siladotriacont-23-en-1-ol]
- PDI [1]: 0.031
- Size (nm) [1]: 144.2 nm
- Zeta potential (mV) [1]: −8.54 mV
- Viability (%) at different lipid concentrations, mean ([2]; 6.25 μM lipid): 99.0%
- Viability (%) at different lipid concentrations, mean ([2]; 12.5 μM lipid): 97.6%
- Viability (%) at different lipid concentrations, mean ([2]; 25 μM lipid): 102.6%
- Viability (%) at different lipid concentrations, mean ([2]; 50 μM lipid): 111.2%
- Viability (%) at different lipid concentrations, mean ([2]; 100 μM lipid): 113.2%
- Viability (%) at different lipid concentrations, mean ([2]; 200 μM lipid): 109.5%
- Viability (%) at different lipid concentrations, mean ([2]; 400 μM lipid): 91.5%
- Viability (%) at different lipid concentrations, mean ([2]; 800 μM lipid): 90.7%
- IC50 [2]: > 800 µM

Compound: CCCCC/C=C\C/C=C\CCCCCCCCOC(CCCCCCC/C=C\CCCCCCCC)O[Si](C)(C)OCCCCCCN(CCO)CCO (stereo not drawn) [Example 46, (23Z,26Z)-13-((Z)-heptadec-8-en-1-yl)-3-(2-hydroxyethyl)-11,11-dimethyl-10,12,14-trioxa-3-aza-11-siladotriaconta-23,26-dien-1-ol]
- PDI [1]: 0.095
- Size (nm) [1]: 129.4 nm
- Zeta potential (mV) [1]: −7.772 mV
- Viability (%) at different lipid concentrations, mean ([2]; 6.25 μM lipid): 103.7%
- Viability (%) at different lipid concentrations, mean ([2]; 12.5 μM lipid): 100.6%
- Viability (%) at different lipid concentrations, mean ([2]; 25 μM lipid): 101.2%
- Viability (%) at different lipid concentrations, mean ([2]; 50 μM lipid): 97.4%
- Viability (%) at different lipid concentrations, mean ([2]; 100 μM lipid): 103.1%
- Viability (%) at different lipid concentrations, mean ([2]; 200 μM lipid): 101.8%
- Viability (%) at different lipid concentrations, mean ([2]; 400 μM lipid): 99.8%
- Viability (%) at different lipid concentrations, mean ([2]; 800 μM lipid): 92.1%
- IC50 [2]: > 800 µM
